The source of these data is paper PMC10113214 (Scientific Reports, 2023).

Data set [1] in a line: Rheology of hydrogels. It counts as physicochemical. The following applies: 1% hydrogel, 37 °C. The protocol:
Rheological parameters of the hydrogels were identified using an MCR 302 rheometer (Anton Paar GmbH, Graz, Austria). The rheometer was equipped with a CP50-1 stainless steel cone-and-plate system of 50 mm diameter, 1° cone angle and 50 µm cone truncation and a Peltier controlled temperature unit. An aliquot of 900 µL of 1% hydrogel was applied to a plate cone. The linear viscoelastic (LVE) region was determined through an amplitude sweeps: shear strain (0.01–100% at 6 rad s^−1) and shear stress (0.001–10 Pa at 6.28 rad s^−1). Frequency sweep were measured from 0.01 to 100 rad s^−1 at 2.5% strain. The frequency dependence of the storage modulus (G’) and loss modulus (G”) of the hydrogels were measured at 37 °C. All experiments were carried out in triplicate and reported as the mean of three repeats.

The target of data set [2] is T1, Human neutrophil elastase (Homo sapiens, UniProt P08246).
T1 construct: purchased Sigma-Aldrich
T1 sequence (P08246 30-267): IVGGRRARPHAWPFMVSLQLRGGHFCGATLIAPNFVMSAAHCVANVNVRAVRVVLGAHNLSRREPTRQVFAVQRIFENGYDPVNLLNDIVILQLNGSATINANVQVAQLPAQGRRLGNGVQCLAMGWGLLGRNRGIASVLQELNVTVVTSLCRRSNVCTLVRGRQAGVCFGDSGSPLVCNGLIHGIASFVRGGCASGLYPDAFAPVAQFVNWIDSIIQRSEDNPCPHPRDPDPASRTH
The data set is described as follows: Elastase enzymatic cleavage. It counts as in vitro ADME. The following applies: human neutrophil elastase 150 nM, peptide 1 mM, 30 min, 37 °C; for identified fragments of peptides after elastase digestion (most abundant MS signals): 300 rpm, 0.1 M Tris HCl, 500 mM NaCl, 0.05% Triton X-100, 20 mM CaCl2 pH 7.5, HPLC and MALDI or LC-MS. The procedure: Human neutrophil elastase (EC No. 3.4.21.37, Sigma-Aldrich) was used to study peptide susceptibility to that enzyme. Peptides were dissolved in 0.1 M Tris HCl, 500 mM NaCl, 0.05% Triton X-100, 20 mM CaCl2 pH 7.5 buffer mixture. Peptides (final concentration 1 mM) were mixed with the enzyme (final concentration 150 nM) and incubated for 30 min. in a thermoshaker (37 °C, 300 rpm). The reaction was stopped by a 10% aqueous solution of TFA. The results were analyzed using HPLC and MALDI or LC–MS. Details of this experiment are described in the Supplementary Data.

For data set [3], the system named is full-thickness excisional dorsal skin wounds. The data set is described as follows: Skin wound healing model in mice. Type of data set: in vivo, BALB/c mice. The protocol: Eight to ten-week-old BALB/c female mice were used for these experiments. All experimental procedures were approved by the Local Ethics Committee for Animal Experimentation in Bydgoszcz, Poland (Approval No. 49/2016). The study was conducted in compliance with the ARRIVE gudidelines. All animal handling methods were carried out in accordance with European Union Commission Recommendation of 18 June 2007 on guidelines for the accommodation and care of animals used for experimental and other scientific purposes. Before experiments, mice were randomized and divided into groups comprising six individuals. The mice were anaesthetized with inhaled 2–5% isoflurane. The skin on the dorsum was shaved and disinfected. After the skin was folded and raised cranially and caudally along the spine, the mouse was placed in a lateral position, and the folded skin was pierced with a 6.0 mm biopsy punch to make two through-and-through symmetrical wounds. Next, 10 µL of peptide hybrid hydrogel was applied onto each wound. Every gel was prepared in sterile conditions in biological safety cabinet, using sterile water to final concentration of 10 mg/ml (1%). Then the gels were incubated for 24 h allowing it to assemble. Control mice were treated with RADA16-I. The wounds were covered with a transparent Tegaderm TM dressing to protect the wound from outer environment of the cage and other animals. It was fastened with an adhesive plaster wrapped around the animal’s torso. The peptide hybrids were applied daily to the wounds for five consecutive days. The dressings were replaced daily in the first five days of the experiment and every second day until the end of the second week of the experiment. To measure the wound areas the wounds were photographed with a ruler placed next to the injury site. Wound areas were calculated using the computer-assisted image analysis program ImageJ[51].

Turning to `CC(=O)N[C@@H](CCCNC(=N)N)C(=O)N[C@@H](C)C(=O)N[C@@H](CC(=O)O)C(=O)N[C@@H](C)C(=O)N[C@@H](CCCNC(=N)N)C(=O)N[C@@H](C)C(=O)N[C@@H](CC(=O)O)C(=O)N[C@@H](C)C(=O)N[C@@H](CCCNC(=N)N)C(=O)N[C@@H](C)C(=O)N[C@@H](CC(=O)O)C(=O)N[C@@H](C)C(=O)N[C@@H](CCCNC(=N)N)C(=O)N[C@@H](C)C(=O)N[C@@H](CC(=O)O)C(=O)N[C@@H](C)C(=O)NCC(=O)NCC(=O)NCC(=O)N[C@@H](C)C(=O)N[C@@H](C)C(=O)N1CCC[C@H]1C(=O)N[C@H](C(=O)NCC(=O)NCC(=O)NCC(=O)N[C@@H](CCCCN)C(=O)NCC(=O)N[C@@H](Cc1c[nH]cn1)C(=O)N[C@@H](CCCCN)C(N)=O)C(C)C` [RADA-KGHK, Ac-(Arg-Ala-Asp-Ala)4-Gly-Gly-Gly-Ala-Ala-Pro-Val-Gly-Gly-Gly-Lys-Gly-His-Lys-NH2], the “magnitude of G’ compared with other gels” value in data set [1] (cone-plate, frequency sweep, mean of three repeats) is “around one-tenth of these values”. Also, the “shear strain above which the gel behaves like a liquid (G” > G’)” value in data set [1] (strain sweep, ω = 6.28 rad/s) is on record as “above 25%”. The “identified fragments of peptides after elastase digestion (most abundant MS signals)” value is given as “Ac-(RADA)4-GGG-AAPV-COOH” in data set [2] (fragment Ac-(RADA)4-GGG-AAPV-COOH), “NH2-APV-GGG-KGHK-NH2” in data set [2] (fragment NH2-APV-GGG-KGHK-NH2) and “NH2-PV-GGG-KGHK-NH2” in data set [2] (fragment NH2-PV-GGG-KGHK-NH2). Also, in data set [2] (pH 7.5 buffer, HPLC, mass spectrometry), the “main / predominant fragments of elastase digestion” value was “Ala^21Pro^22Val^23Gly^24Gly^25Gly^26Lys^27Gly^28His^29Lys^30”. Also, the “wound closure on day 7” value in data set [3] (BALB/c female mice, 6.0 mm punch dorsal wounds, 10 µL 1% hydrogel topically daily for five days, n = 6, SD) was determined as 44.4 ± 4.9%. Besides, in data set [3] (BALB/c mice, 1% hydrogel topically, day 2 up to day 14), the “wound healing compared to RADA16-I” value was “Accelerated wound healing”.
